From patent US20030064941A1, “Avermectin and praziquantel combination therapy” (priority 2001, published 2003)
In brackets after ≈: the same amount, converted by molar mass. Several values for one entry are separate records, joined by “and”; a condition that tells them apart may be missing. Identical values can stand only once. Like-named read-outs stand apart in the source and are kept apart here. Blank lines part the entries; values can stand above or below the compound they belong to.

Key:
[1] = cats, 3× dosage levels (oral, subcutaneous, intramuscular) during reproduction; cited from earlier work
Taenia spp = experiment: Topical co-formulation efficacy against natural tapeworm infections in cats (post mortem counts); type: in vivo; details: Trial "B", single topical dose, 30 days after treatment
Description: (§1) […] Cats harbouring natural tapeworm infections were used, and randomized to treatment based on pre-trial infections. Animals were killed 30 days after treatment, and post mortem tapeworm counts were conducted.

Dipylidium spp = experiment: as above; type: in vivo; details: single topical dose, 30 days after treatment
Description: as §1

Taenia taeniaeformis = details: cats, experimental immature infections; cited from earlier work
physchem = details: 30 °C, organic solvent or mixture, thermodynamic from solid, solubility (based on mean values)
Description: (§2) To achieve this a series of solutions of varying IPA/DPGMME ratio were prepared. To help minimize any solubility issues, which could arise due to the presence of selamectin in a formulation, a constant amount of selamectin was added to each solution. After achieving saturated solubility in these solutions and following filtration to remove excess undissolved praziquantel, the level of praziquantel (and selamectin) in solution was determined by HPLC.
(§3) A series of IPA/DPGMME mixtures were prepared in duplicate as outlined in Table 1. To these were added a fixed amount of selamectin to provide a constant concentration of 120 mg per ml, i.e., the maximum selamectin concentration found in Stronghold™. After preparation these solutions were placed at 30° C. and rolled continuously for 48 hours.
(§4) Praziquantel was analysed using an gradient HPLC method modified from that developed for selamectin. […] This same method was also used to check on the selamectin content in these same solutions.
(§5) The solubility of praziquantel and selamectin in the IPA/DPGMME solutions was calculated as both mg per g and mg per ml. The mass of a 1 ml solution taken for analysis was also measured so that an approximate density could be calculated.

[2] = for Concentration (mg per g) / Concentration (mg per ml): selamectin added at 120 mg per ml, 30° C.
Description: as §2, §3, §4, §5

[3] = praziquantel 0.5 mg/kg, alone or with selamectin 8 mg/kg
[4] = selamectin 8 mg/kg and/or praziquantel 1 mg/kg
[5] = Trial "A", selamectin 8 mg/kg and/or praziquantel 1 mg/kg
[6] = Trial "B", praziquantel 0.5 mg/kg, alone or with selamectin 8 mg/kg
[7] = Trial "B", selamectin 8 mg/kg and/or praziquantel 1 mg/kg
[8] = solution 2A: IPA 75 / DPGMME 25 % V/V
[9] = solutions 1A/1B: IPA 100 / DPGMME 0 % V/V
[10] = solutions 3A/3B: IPA 50 / DPGMME 50 % V/V
[11] = solutions 4A/4B: IPA 25 / DPGMME 75 % V/V
[12] = solutions 5A/5B: IPA 0 / DPGMME 100 % V/V

solubility at 48 h (physchem): 67 mg/mL (≈ 214 mM)
Structure (SMILES): O=C(C1CCCCC1)N1CC(=O)N2CCc3ccccc3C2C1 (stereo not shown) [Praziquantel, 2-(cyclohexylcarbonyl)-1,2,3,6,7-11b-hexahydro-4H-pyraz-ino[2,1-a]isoquinolin-4-one]
effects on fertility, conception, fetal development or pregnancy [1]: lack of effects on fertility, conception, fetal development or pregnancy | % Efficacy (Taenia) (Taenia spp; [3]): 100% | Mean Taenia post mortem count (n = 5 / gp) (Taenia spp; [3]): 0 | % Efficacy (Taenia) (Taenia spp; [4]): 72% | Mean Taenia post mortem count (n = 5 / gp) (Taenia spp; [4]): 1.2 | % Efficacy (Dipylidium) (Dipylidium spp; [5]): 74% | Mean Dipylidium post mortem count (n = 4 / gp) (Dipylidium spp; [5]): 3.25 | % Efficacy (Dipylidium) (Dipylidium spp; [6]): 16% | Mean Dipylidium post mortem count (n = 5 / gp) (Dipylidium spp; [6]): 7.6 | % Efficacy (Dipylidium) (Dipylidium spp; [7]): 89% | Mean Dipylidium post mortem count (n = 5 / gp) (Dipylidium spp; [7]): 1 | elimination of experimental T. taeniaeformis infections as young as seven (7) days (Taenia taeniaeformis): 100%

Structure (SMILES): CO[C@H]1C[C@H](O[C@@H]2/C(C)=C/C[C@@H]3C[C@@H](C[C@]4(CC[C@H](C)[C@@H](C5CCCCC5)O4)O3)OC(=O)[C@@H]3C=C(C)/C(=N/O)[C@H]4OC/C(=C\C=C\[C@@H]2C)[C@]43O)O[C@@H](C)[C@@H]1O [Selamectin, 5-oximino-22,23-dihydro-25-cyclohexylayermectin B1]
solubility as the IPA concentration reduces ([2]; IPA/DPGMME solutions, all ratios): ≥ 100 mg/g | Concentration (mg per g) [2, 8]: 118 mg per g | Concentration (mg per ml) [2, 8]: 103 mg per ml | Concentration (mg per g) [2, 9]: 123 mg per g | Concentration (mg per ml) [2, 9]: 103 mg per ml | Concentration (mg per g) [2, 10]: 113 mg per g | Concentration (mg per ml) [2, 10]: 103 mg per ml | Concentration (mg per g) [2, 11]: 113 mg per g and 108 mg per g | Concentration (mg per ml) [2, 11]: 107 mg per ml and 103 mg per ml | Concentration (mg per g) [2, 12]: 104 mg per g and 103 mg per g | Concentration (mg per ml) [2, 12]: 103 mg per ml and 102 mg per ml | Mean Taenia post mortem count (n = 5 / gp) (Taenia spp; [4]): No infection | % Efficacy (Dipylidium) (Dipylidium spp; [5]): 40% | Mean Dipylidium post mortem count (n = 4 / gp) (Dipylidium spp; [5]): 7.2 | Mean Dipylidium post mortem count (n = 5 / gp) (Dipylidium spp; [7]): No infection
